Test results from PubChem BioAssay (NCI).
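Compound exposure: 48 hours, 5 concentrations, 96-well plates. Abbreviation: GI50, concentration required for 50% inhibition of growth. Definition used: TGI = concentration required for complete inhibition of growth.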

Legend:
Experiment in all cases: NCI anticancer screen, dose series, 48 h
ACHN renal = test system: ACHN renal
HS 578T breast = test system: HS 578T breast
SF-295 CNS = test system: SF-295 CNS
SK-MEL-2 melanoma = test system: SK-MEL-2 melanoma
KM12 colon = test system: KM12 colon
SW-620 colon = test system: SW-620 colon
SNB-75 CNS = test system: SNB-75 CNS
SK-MEL-28 melanoma = test system: SK-MEL-28 melanoma
HCT-116 colon = test system: HCT-116 colon
LOX IMVI melanoma = test system: LOX IMVI melanoma
OVCAR-8 ovarian = test system: OVCAR-8 ovarian
OVCAR-4 ovarian = test system: OVCAR-4 ovarian
U251 CNS = test system: U251 CNS
A498 renal = test system: A498 renal
SF-268 CNS = test system: SF-268 CNS
MCF7 breast = test system: MCF7 breast
HOP-92 NSCLC = test system: HOP-92 NSCLC
CAKI-1 renal = test system: CAKI-1 renal
T-47D breast = test system: T-47D breast
A549 NSCLC = test system: A549 NSCLC
NCI/ADR-RES ovarian = test system: NCI/ADR-RES ovarian
SN12C renal = test system: SN12C renal
MOLT-4 leukemia = test system: MOLT-4 leukemia
NCI-H522 lung = test system: NCI-H522 lung
UACC-257 melanoma = test system: UACC-257 melanoma
SK-MEL-5 melanoma = test system: SK-MEL-5 melanoma
SR leukemia = test system: SR leukemia
HOP-62 NSCLC = test system: HOP-62 NSCLC
SNB-19 CNS = test system: SNB-19 CNS
MDA-MB-435 = test system: MDA-MB-435
NCI-H226 lung = test system: NCI-H226 lung
HCC-2998 colon = test system: HCC-2998 colon
OVCAR-5 ovarian = test system: OVCAR-5 ovarian
DU-145 prostate = test system: DU-145 prostate
SK-OV-3 ovarian = test system: SK-OV-3 ovarian
CCRF-CEM leukemia = test system: CCRF-CEM leukemia
TK-10 renal = test system: TK-10 renal
K-562 leukemia = test system: K-562 leukemia
RXF 393 renal = test system: RXF 393 renal
HT29 colon = test system: HT29 colon
786-0 renal = test system: 786-0 renal
HCT-15 colon = test system: HCT-15 colon
NCI-H460 lung = test system: NCI-H460 lung
HL-60(TB) leukemia = test system: HL-60(TB) leukemia
M14 melanoma = test system: M14 melanoma
BT-549 breast = test system: BT-549 breast
UACC-62 melanoma = test system: UACC-62 melanoma
IGROV1 ovarian = test system: IGROV1 ovarian
RPMI-8226 leukemia = test system: RPMI-8226 leukemia
MDA-MB-231 breast = test system: MDA-MB-231 breast
SF-539 CNS = test system: SF-539 CNS
PC-3 prostate = test system: PC-3 prostate
UO-31 renal = test system: UO-31 renal
MALME-3M melanoma = test system: MALME-3M melanoma
OVCAR-3 ovarian = test system: OVCAR-3 ovarian
EKVX NSCLC = test system: EKVX NSCLC
COLO 205 colon = test system: COLO 205 colon

`Cc1cc2nc3c4cc(Cl)ccc4n(CC(=S)NCCN(C)C)c3nc2cc1C` gave a GI50 (ACHN renal) of 1.6 µM, a TGI (ACHN renal) of 2.95 µM and a GI50 (HS 578T breast) of 11 µM. The TGI (HS 578T breast) was 30.8 µM, the GI50 (SF-295 CNS) was 5.56 µM and the TGI (SF-295 CNS) was 18.2 µM. It also gave a GI50 (SK-MEL-2 melanoma) of 14.2 µM, a TGI (SK-MEL-2 melanoma) of 27.8 µM and a GI50 (KM12 colon) of 2.73 µM. For the same compound, the TGI (KM12 colon) was 8.29 µM, the GI50 (SW-620 colon) was 1.68 µM and the TGI (SW-620 colon) was 3.15 µM. For the same compound, the GI50 (SNB-75 CNS) was 11.2 µM, the TGI (SNB-75 CNS) was 24.7 µM and the GI50 (SK-MEL-28 melanoma) was 1.81 µM. It also gave a TGI (SK-MEL-28 melanoma) of 3.43 µM, a GI50 (HCT-116 colon) of 1.73 µM and a TGI (HCT-116 colon) of 3.17 µM. It also gave a GI50 (LOX IMVI melanoma) of 0.241 µM, a TGI (LOX IMVI melanoma) of 1.77 µM and a GI50 (OVCAR-8 ovarian) of 1.75 µM. The TGI (OVCAR-8 ovarian) was 3.39 µM, the GI50 (OVCAR-4 ovarian) was 2.81 µM and the TGI (OVCAR-4 ovarian) was 10.2 µM. The GI50 (U251 CNS) was 1.71 µM, the TGI (U251 CNS) was 3.17 µM and the GI50 (A498 renal) was 17.1 µM. It also gave a TGI (A498 renal) of 31.3 µM, a GI50 (SF-268 CNS) of 5.56 µM and a TGI (SF-268 CNS) of 21.1 µM. For the same compound, the GI50 (MCF7 breast) was 1.19 µM, the TGI (MCF7 breast) was 2.51 µM and the GI50 (HOP-92 NSCLC) was 1.79 µM. For the same compound, the TGI (HOP-92 NSCLC) was 8.06 µM, the GI50 (CAKI-1 renal) was 2.84 µM and the TGI (CAKI-1 renal) was 14.4 µM. For the same compound, the GI50 (T-47D breast) was 5.11 µM, the TGI (T-47D breast) was 20.2 µM and the GI50 (A549 NSCLC) was 1.75 µM. It also gave a TGI (A549 NSCLC) of 3.52 µM, a GI50 (NCI/ADR-RES ovarian) of 1.87 µM and a TGI (NCI/ADR-RES ovarian) of 3.7 µM. The GI50 (SN12C renal) was 2.07 µM, the TGI (SN12C renal) was 4.97 µM and the GI50 (MOLT-4 leukemia) was 1.97 µM. For the same compound, the TGI (MOLT-4 leukemia) was 4.29 µM, the GI50 (NCI-H522 lung) was 1.72 µM and the TGI (NCI-H522 lung) was 3.47 µM. The GI50 (UACC-257 melanoma) was 3.29 µM, the TGI (UACC-257 melanoma) was 11.9 µM and the GI50 (SK-MEL-5 melanoma) was 4.09 µM. The TGI (SK-MEL-5 melanoma) was 14 µM, the GI50 (SR leukemia) was 2.46 µM and the TGI (SR leukemia) was 6.23 µM. For the same compound, the GI50 (HOP-62 NSCLC) was 6.68 µM, the TGI (HOP-62 NSCLC) was 21.6 µM and the GI50 (SNB-19 CNS) was 5.87 µM. It also gave a TGI (SNB-19 CNS) of 19.9 µM, a GI50 (MDA-MB-435) of 1.89 µM and a TGI (MDA-MB-435) of 3.53 µM. It also gave a GI50 (NCI-H226 lung) of 10.5 µM, a TGI (NCI-H226 lung) of 24.9 µM and a GI50 (HCC-2998 colon) of 1.66 µM. For the same compound, the TGI (HCC-2998 colon) was 3.09 µM, the GI50 (OVCAR-5 ovarian) was 4.87 µM and the TGI (OVCAR-5 ovarian) was 17.6 µM. For the same compound, the GI50 (DU-145 prostate) was 2.64 µM, the TGI (DU-145 prostate) was 6.99 µM and the GI50 (SK-OV-3 ovarian) was 11.8 µM. It also gave a TGI (SK-OV-3 ovarian) of 24.1 µM, a GI50 (CCRF-CEM leukemia) of 2.36 µM and a TGI (CCRF-CEM leukemia) of 6.17 µM. It also gave a GI50 (TK-10 renal) of 11.4 µM, a TGI (TK-10 renal) of 24.2 µM and a GI50 (K-562 leukemia) of 2.07 µM. The TGI (K-562 leukemia) was 5.21 µM, the GI50 (RXF 393 renal) was 3.56 µM and the TGI (RXF 393 renal) was 14.4 µM. For the same compound, the GI50 (HT29 colon) was 1.78 µM, the TGI (HT29 colon) was 3.36 µM and the GI50 (786-0 renal) was 1.64 µM. The TGI (786-0 renal) was 3.2 µM, the GI50 (HCT-15 colon) was 1.75 µM and the TGI (HCT-15 colon) was 3.17 µM. The GI50 (NCI-H460 lung) was 1.81 µM, the TGI (NCI-H460 lung) was 3.35 µM and the GI50 (HL-60(TB) leukemia) was 1.87 µM. For the same compound, the TGI (HL-60(TB) leukemia) was 3.99 µM, the GI50 (M14 melanoma) was 1.64 µM and the TGI (M14 melanoma) was 3.12 µM. It also gave a GI50 (BT-549 breast) of 13.3 µM, a TGI (BT-549 breast) of 26.5 µM and a GI50 (UACC-62 melanoma) of 1.81 µM. For the same compound, the TGI (UACC-62 melanoma) was 3.62 µM, the GI50 (IGROV1 ovarian) was 3.53 µM and the TGI (IGROV1 ovarian) was 15.6 µM. The GI50 (RPMI-8226 leukemia) was 2.75 µM, the TGI (RPMI-8226 leukemia) was 7.49 µM and the GI50 (MDA-MB-231 breast) was 1.82 µM. It also gave a TGI (MDA-MB-231 breast) of 3.63 µM, a GI50 (SF-539 CNS) of 3.33 µM and a TGI (SF-539 CNS) of 12.2 µM. The GI50 (PC-3 prostate) was 1.83 µM, the TGI (PC-3 prostate) was 4.84 µM and the GI50 (UO-31 renal) was 1.07 µM. It also gave a TGI (UO-31 renal) of 2.53 µM, a GI50 (MALME-3M melanoma) of 1.86 µM and a TGI (MALME-3M melanoma) of 4.16 µM. The GI50 (OVCAR-3 ovarian) was 2.05 µM, the TGI (OVCAR-3 ovarian) was 4.67 µM and the GI50 (EKVX NSCLC) was 3.07 µM. For the same compound, the TGI (EKVX NSCLC) was 11.8 µM, the GI50 (COLO 205 colon) was 1.78 µM and the TGI (COLO 205 colon) was 3.49 µM.
